# Assays:
# [1] = system: RAW264.7; experiment: Antiinflammatory activity in mouse RAW264.7 cells assessed as inhibition of LPS-induced NO production after 24 hrs by Griess method; type: functional, cell-based; conditions: RAW264.7, 24 h
# [2] = system: RAW264.7; experiment: Cytotoxicity against mouse RAW264.7 cells assessed as reduction in cell viability at IC50 by MTT assay; type: cell-based
Structure (SMILES),IC50 [1],Activity [2]
CC1=C2[C@H](OC1=O)[C@H](O)[C@H]1[C@]3(C)CCCC(C)(C)[C@H]3CC[C@@]1(O)[C@H]2O,15.5 µM,Non-toxic
CC1=C2[C@@H](O)C3=CC[C@@H]4C(C)(C)CCC[C@@]4(C)[C@@H]3[C@@H](O)[C@H]2OC1=O,14.2 µM,Non-toxic
CC1=C2C(=O)C3=C([C@@H](O)[C@H]2OC1=O)[C@]1(C)CCCC(C)(C)[C@H]1CC3,0.69 µM,Non-toxic
CC1=C2[C@@H](O)[C@@]3(O)CC[C@@H]4C(C)(C)CCC[C@@]4(C)[C@@H]3[C@@H](O)[C@H]2OC1=O,4.44 µM,Non-toxic

# Continued by falling IC50 [1], values first:
IC50 [1],Structure (SMILES),Activity [2]
33.1 µM,CC1=C2[C@@H](O)C3=C([C@@H](O)[C@H]2OC1=O)[C@]1(C)CCCC(C)(C)[C@H]1CC3,Non-toxic
25 µM,CC1=C2C(=C[C@H]3[C@]4(C)CCCC(C)(C)[C@H]4CC[C@]34O[C@H]24)OC1=O,Non-toxic
6.98 µM,CC1=C2[C@H]3O[C@]34CC[C@@H]3C(C)(C)CCC[C@@]3(C)[C@@H]4[C@@H](O)[C@H]2OC1=O,Non-toxic
5.94 µM,CC1=C2C=C3CC[C@@H]4C(C)(C)CCC[C@@]4(C)[C@@H]3[C@@H](O)[C@H]2OC1=O,Non-toxic
1.97 µM,CO[C@@]12OC(=O)C(C)=C1C=C1CC[C@@H]3C(C)(C)CCC[C@@]3(C)[C@@H]1[C@H]2O,Non-toxic
